BigSolDB 2.1

CC[C@@H](C(=O)[C@@H](C)[C@@H](O)[C@H](C)CCc1ccc(C)c(O)c1C(=O)[O-])[C@H]1O[C@](CC)([C@H]2CC[C@](O)(CC)[C@H](C)O2)C[C@@H]1C.[Na+]
solubility (mole fraction)
Conditions	283.15 K	288.15 K	293.15 K	298.15 K	303.15 K	308.15 K	313.15 K	318.15 K	323.15 K
in acetone	0.0117	0.0119	0.0121	0.0123	0.0125	0.0127	0.0129	0.0132	0.0135
in ethanol	0.00223	0.00246	0.0026	0.00311	0.00364	0.00419	0.00456	0.00502	0.00564
in ethyl acetate	0.00531	0.00538	0.00548	0.00556	0.00566	0.00575	0.00587	0.00596	0.00602
in isopropanol	0.00085	0.00095	0.00106	0.00117	0.00136	0.00161	0.00191	0.00211	0.00233
in methanol	0.00259	0.00293	0.0031	0.00352	0.00391	0.00413	0.00456	0.00508	0.00577
